pIC50: −log10 of the molar value.
Key:
steroid sulphatase = target: T1, steroid sulphatase (Homo sapiens, UniProt P08842); conditions: compared with EMATE, cited from earlier work; for E1-STS inactivation: 3-O-atom replaced by other heteroatoms
T1 sequence (P08842 22-583): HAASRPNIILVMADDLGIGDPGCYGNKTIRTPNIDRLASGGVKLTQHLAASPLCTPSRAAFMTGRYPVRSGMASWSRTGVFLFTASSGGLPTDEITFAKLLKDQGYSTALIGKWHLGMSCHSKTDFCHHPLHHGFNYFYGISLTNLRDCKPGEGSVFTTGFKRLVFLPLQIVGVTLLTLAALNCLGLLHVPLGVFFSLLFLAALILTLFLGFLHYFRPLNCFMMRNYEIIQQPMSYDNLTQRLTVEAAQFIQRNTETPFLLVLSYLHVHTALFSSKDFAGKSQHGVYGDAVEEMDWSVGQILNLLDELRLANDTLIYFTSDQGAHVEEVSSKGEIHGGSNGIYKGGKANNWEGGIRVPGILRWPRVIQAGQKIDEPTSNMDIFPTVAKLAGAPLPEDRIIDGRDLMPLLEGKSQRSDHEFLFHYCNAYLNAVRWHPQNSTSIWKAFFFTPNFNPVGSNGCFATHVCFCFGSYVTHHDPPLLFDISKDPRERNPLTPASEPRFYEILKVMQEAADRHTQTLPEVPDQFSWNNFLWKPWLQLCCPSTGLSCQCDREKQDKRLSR

rats = conditions: cited from earlier work
steroid sulphatase (STS) = target: T2, steroid sulphatase (STS) (Homo sapiens, UniProt P08842); assay: STS inhibition, IC50 (protocol not given); type: biochemical; conditions: assay not given
T2 construct: Placental microsomes were obtained by centrifugation of the resulting supernatant at 100,000×g for 1 h; from tissue; host or cells: human placenta (microsomes)
T2 sequence (P08842 22-583): T1 sequence (P08842 22-583)
Procedure: Sulphatase-positive human placenta from normal term pregnancies are thoroughly minced with scissors and washed once with cold phosphate buffer (pH 7.4, 50 mM) then re-suspended in cold phosphate buffer (5 ml/g tissue). Homogenisation is accomplished with an Ultra-Turrax homogeniser, using three 10 second bursts separated by 2 minute cooling periods in ice. Nuclei and cell debris are removed by centrifuging (4° C.) at 2000 g for 30 minutes and portions (2 ml) of the supernatant are stored at […] The protein concentration of the supernatants is determined by the method of Bradford (Anal. Biochem., 72, 248-254 (1976)).
Incubations (1 ml) are carried out using a protein concentration of […], substrate concentration of […] [6,7-3H]oestrone-3-sulphate (specific activity 60 Ci/mmol from New England Nuclear, Boston, Mass., U.S.A.) and an incubation time of 20 minutes at 37° C. If necessary eight concentrations of compounds are employed: 0 (i.e. control); 0.05 mM; 0.1 mM; 0.2 mM; 0.4 mM; 0.6 mM; 0.8 mM; 1.0 mM. After incubation each sample is cooled and the medium (1 ml) was pipetted into separate tubes containing [14C]oestrone (7×10^3 dpm) (specific activity 97 Ci/mmol from Amersham International Radiochemical Centre, Amersham, U.K.). The mixture is shaken thoroughly for 30 seconds with toluene (5 ml). Experiments have shown that >90% [14C]oestrone and <0.1% [3H]oestrone-3-sulphate is removed from the aqueous phase by this treatment. A portion (2 ml) of the organic phase was removed, evaporated and the 3H and 14C content of the residue determined by scintillation spectrometry. The mass of oestrone-3-sulphate hydrolysed is calculated from the 3H counts obtained (corrected for the volumes of the medium and organic phase used, and for recovery of [14C]oestrone added) and the specific activity of the substrate.
A sulphatase—positive human placenta was used as a source of placental microsomes. Tissue was homogenised and nuclei and cell debris removed by centrifugation at 2000×g for 30 min. Placental microsomes were obtained by centrifugation of the resulting supernatant at 100,000×g for 1 h.
For inhibition studies placental microsomes (125 μg/ml) were incubated in the absence or presence of inhibitors (1 pm-1.0 μM) with ^3H estrone sulphate (E1S, 2×10^5 dpm adjusted to 20 μM with unlabelled E1S for 60 mins. [4-^14C E1] (7×10^3 dpm) was added to correct for procedural losses and free and sulphated steroids separated by solvent partition using toluene. A portion of the solvent was removed and the ^3H and ^14C content determined by liquid scintillation spectrometry.

T47D cells = assay: Effect of Halo-EMATEs on T47D cell growth (plate assay); type: cell-based; set-up: key to Morphology: +: has effect on cell morphology; conditions: for inhibition at 1 µM / inhibition at 10 µM: Homo sapiens, 24 h
Procedure: Effect of Halo-EMATES on T47D Cell Growth (Plate Assay)
T47D receptor positive breast cancer cells were seeded into a 96 well cell culture plate and allowed to grow until approximately 70% confluent. Cells were treated with either vehicle (controls, tetrahydrofuran in medium) or halo-EMATEs (1 or 10 μM) and cultured for a further 24 h. At the end of this period effects of the drugs on cell numbers were determined using a microtitre plate assay (Cell Titre 96 cell proliferation assay, Promega). In this assay the conversion of substrate by untreated cells at the end of the culture period was set at 100%.

MCF-7 cells = assay: Plate Assay in MCF-7 cells; type: cell-based; conditions: Homo sapiens, MCF7
[1] = cited from earlier work
E1-STS = target: T3, E1-STS (Homo sapiens, UniProt P08842); conditions: intact MCF-7 cells, 0.1 mM; cited from earlier work
T3 construct: endogenous in cells; host or cells: MCF-7
T3 sequence (P08842 22-583): T1 sequence (P08842 22-583)

Row | Compound | pIC50 (steroid sulphatase (STS)) | Morphology (T47D cells) | inhibition at 10 µM (MCF-7 cells) [%] | other results
1 | COc1cc2c(cc1OS(N)(=O)=O)CC[C@@H]1[C@@H]2CC[C@]2(C)C(=O)CC[C@@H]12 [2-methoxyoestrone-3-O-sulphamate] |  |  |  | potency as steroid sulphatase inhibitor (steroid sulphatase): equipotent with EMATE; oestrogenicity (rats; rat, in vivo): devoid of oestrogenicity
2 | C[C@]12CC[C@@H]3c4cc(Br)c(OS(N)(=O)=O)cc4CC[C@H]3[C@@H]1CCC2=O [Compound 4, 2-Bromooestrone 3-O-sulphamate] | 8.78 | + | 33 | 
3 | C[C@]12CC[C@@H]3c4cc(I)c(OS(N)(=O)=O)cc4CC[C@H]3[C@@H]1CCC2=O [Compound 7, 2-Iodooestrone 3-O-sulphamate] | 8.21 | + | 25 | 
4 | C[C@]12CC[C@@H]3c4cc(Cl)c(OS(N)(=O)=O)cc4CC[C@H]3[C@@H]1CCC2=O [Compound 10, 2-Chloroestrone 3-O-sulphamate] | 9.10 | + | 35 | inhibition at 1 µM (T47D cells): 1%; inhibition at 10 µM (T47D cells): 7.5%
5 | C[C@]12CCC3c4cc(F)c(OS(N)(=O)=O)cc4CCC3C1CCC2=O (stereo partly shown) [Compound 13, 2-Fluorooestrone-3-O-sulphamate] | 8.25 | + |  | inhibition at 1 µM (T47D cells): < 1%; inhibition at 10 µM (T47D cells): 30%
6 | C[C@]12CC[C@@H]3c4ccc(OS(=O)(=O)O)cc4CC[C@H]3[C@@H]1CCC2=O [Compound E1S, oestrone sulphate] |  |  |  | half-life in blood [1]: 10 to 12 h
7 | CC12CCC3c4ccc(OS(N)(=O)=O)cc4CCC3C1CCC2=O (stereo not shown) [EMATE, oestrone-3-O-sulphamate] |  |  |  | inhibition of E1-STS activity (E1-STS): more than 99%; oral uterotrophic activity relative to estradiol (rats; rats, oral): 100 times
8 | oestrone-3-N-sulphamate |  |  |  | E1-STS inactivation (steroid sulphatase): weaker non-time-dependent inactivators
9 | oestrone-3-S-sulphamate |  |  |  | E1-STS inactivation (steroid sulphatase): weaker non-time-dependent inactivators

From patent US6858597B2, “Halogenated sulphamate-, phosphonate-, thiophosphonate-, sulphonate- and sulphonamide- compounds as inhibitors of steroid sulphatase” (Sterix Limited, priority 1999, dated 2005)
